Source: EPA's ToxValDB 9.5 (doi:10.2903/j.efsa.2016.4475)
In brackets after ≈: the same amount, converted by molar mass.

What was measured:
Rattus norvegicus = conditions: oral
Mus musculus = conditions: chronic; duration: 103 weeks; oral; diet; mortality
Daphnia magna = conditions: acute; mortality
Pontoscolex corethrurus = conditions: acute; mortality
[1] = chronic, duration: 103 weeks, diet, histopathology: neoplastic

CC(=O)O[C@@H]1C[C@H](C)CC[C@H]1C(C)C (racemic) [dl-Menthyl acetate]
NOAEL (Rattus norvegicus; [1]): 375 mg/kg-day | NOAEL (Mus musculus): 600 mg/kg-day

CC1CCC(C(C)C)C(O)C1 (stereo unspecified) [Menthol]
NOAEL (Rattus norvegicus; [1]): 375 mg/kg-day | NOAEL (Mus musculus): 600 mg/kg-day

CC(=O)/C=C/C1C(C)=CCC(C)C1(C)C (stereo not drawn) [alpha-Irone]
LC50 (Daphnia magna): 0.513 µg/mL (≈ 2.49 µM)

CCCCCC1C(=O)CCC1CC(=O)OC (stereo unspecified) [Methyl dihydrojasmonate]
LC50 (Pontoscolex corethrurus): 1430 mg/kg | NOAEL (Rattus norvegicus; subchronic, duration: 13 weeks, diet, M/F, Sprague-Dawley, no effects): 100 mg/kg-day

CC(=O)/C=C/C1=C(C)CCCC1(C)C [beta-Ionone]
NOAEL (Rattus norvegicus; subchronic, duration: 13 weeks, diet, M/F, body weight): 10 mg/kg-day

CC(=O)O[C@@H]1C[C@H]2CC[C@]1(C)C2(C)C [Isobornyl acetate]
NOAEL (Rattus norvegicus; subchronic, duration: 13 weeks, gavage, M/F, organ weight): 15 mg/kg-day

CC(=O)/C=C/C1C(C)=CCCC1(C)C (stereo not drawn) [alpha-Ionone]
NOAEL (Rattus norvegicus; subchronic, duration: 13 weeks, diet, M/F, food consumption): 10 mg/kg-day

CC(=O)OC1CCCCC1 [Cyclohexyl acetate]
LC50 (Pontoscolex corethrurus): 1150 mg/kg
